Assays:
Rattus norvegicus [1] = experiment: Distribution of radioactivity was determined in kidney at 3h after intravenous administration of [125I]-labeled 2-oleoglycerol 1,3-Bis-[omega-(3-amino-2,4,6-triiodophenyl)alkanoates] in rats; type: ADME, organism-based; conditions: in vivo
Rattus norvegicus [2] = experiment: Distribution of radioactivity was determined in heart at 3h after intravenous administration of [125I]-labeled 2-oleoglycerol 1,3-Bis-[omega-(3-amino-2,4,6-triiodophenyl)alkanoates] in rats; type: ADME, organism-based; conditions: in vivo
Rattus norvegicus [3] = experiment: Analysis of lipid-soluble radioactivity in liver 0.5 hour after iv administration of [125I]-labeled 2-Oleoyl 1,3-disubstituted Triacylglycerols expressed as %parent compound (by TLC with authentic [125I]-labeled standard) from rat; type: ADME, organism-based; conditions: in vivo
Rattus norvegicus [4] = experiment: Distribution of radioactivity was determined in thyroid at 30 min after intravenous administration of [125I]-labeled 2-oleoglycerol 1,3-Bis-[omega-(3-amino-2,4,6-triiodophenyl)alkanoates] in rats; type: ADME, organism-based, Thyroid gland; conditions: in vivo, 0.5 h
Rattus norvegicus [5] = experiment: Distribution of radioactivity was determined in spleen at 30 min after intravenous administration of [125I]-labeled 2-oleoglycerol 1,3-Bis-[omega-(3-amino-2,4,6-triiodophenyl)alkanoates] in rats; type: ADME, organism-based; conditions: in vivo, 0.5 h
Rattus norvegicus [6] = experiment: Distribution of radioactivity was determined in blood at 3h after intravenous administration of [125I]-labeled 2-oleoglycerol 1,3-Bis-[omega-(3-amino-2,4,6-triiodophenyl)alkanoates] in rats; type: ADME, organism-based; conditions: in vivo
Rattus norvegicus [7] = experiment: Distribution of radioactivity was determined in blood at 3h after intravenous administration of 1,3-Disubstituted Triacylglycerols in rats; type: ADME, organism-based; conditions: in vivo
Rattus norvegicus [8] = experiment: Distribution of radioactivity was determined in plasma at 3h after intravenous administration of [125I]-labeled 2-oleoglycerol 1,3-Bis-[omega-(3-amino-2,4,6-triiodophenyl)alkanoates] in rats; type: ADME, organism-based; conditions: in vivo
Rattus norvegicus [9] = experiment: Polyacrylamide Gel Electrophoresis (PAGE) to determined the concentration of albumin(ALB) in rats after iv administration of [125I]-labeled 2-Oleolyl 1,3-disubstituted triglycerols was reported; type: ADME, organism-based; conditions: in vivo
Rattus norvegicus [10] = experiment: Distribution of radioactivity was determined in blood at 30 min after intravenous administration of [125I]-labeled 2-oleoglycerol 1,3-Bis-[omega-(3-amino-2,4,6-triiodophenyl)alkanoates] in rats; type: ADME, organism-based; conditions: in vivo, 0.5 h
Rattus norvegicus [11] = experiment: Distribution of radioactivity was determined in thyroid at 3h after intravenous administration of [125I]-labeled 2-oleoglycerol 1,3-Bis-[omega-(3-amino-2,4,6-triiodophenyl)alkanoates] in rats; type: ADME, organism-based, Thyroid gland; conditions: in vivo
Rattus norvegicus [12] = experiment: Distribution of radioactivity was determined in plasma at 24 hr after intravenous administration of [125I]-labeled 2-oleoglycerol 1,3-Bis-[omega-(3-amino-2,4,6-triiodophenyl)alkanoates] in rats; type: ADME, organism-based; design: unit not given here; conditions: in vivo
Rattus norvegicus [13] = experiment: Analysis of lipid-soluble radioactivity in liver 0.5 hour after iv administration of [125I]-labeled 2-Oleoyl 1,3-disubstituted Triacylglycerols and represented as % CHCl3/CH3OH from rat; type: ADME, organism-based; conditions: in vivo

| Structure (SMILES) | Distribution of radioactivity (Rattus norvegicus [1]) | Distribution of radioactivity (Rattus norvegicus [2]) | Lipid-soluble radioactivity (Rattus norvegicus [3]) | Distribution of radioactivity (Rattus norvegicus [4]) | Distribution of radioactivity (Rattus norvegicus [5]) | Distribution of radioactivity (Rattus norvegicus [6]) | Distribution of radioactivity (Rattus norvegicus [7]) | Distribution of radioactivity (Rattus norvegicus [8]) | Radioactivity (Rattus norvegicus [9]) | Distribution of radioactivity (Rattus norvegicus [10]) | Distribution of radioactivity (Rattus norvegicus [11]) | Distribution of radioactivity (Rattus norvegicus [12]) | Lipid-soluble radioactivity (Rattus norvegicus [13]) |
| --- | --- | --- | --- | --- | --- | --- | --- | --- | --- | --- | --- | --- | --- |
| CCCCCCCC/C=C/CCCCCCCC(=O)OC(COC(=O)Cc1c(I)cc(I)c(N)c1I)COC(=O)Cc1c(I)cc(I)c(N)c1I | 0.04 % dose/g | 0.1 % dose/g | 85.1 | 0.16 % dose/g | 23.4 % dose/g | 0.04 % dose/g | 0.5 % dose/organ | 0.07 % dose/g | 1.8% | 0.69 % dose/g | 0.27 % dose/g | 0.01 | 62.6 |
| CCCCCCCC/C=C/CCCCCCCC(=O)OC(COC(=O)CCCCCc1c(I)cc(I)c(N)c1I)COC(=O)CCCCCc1c(I)cc(I)c(N)c1I | 0.21 % dose/g | 0.2 % dose/g | 96.8 | 0.54 % dose/g | 24.4 % dose/g | 0.2 % dose/g | 2.2 % dose/organ | 0.24 % dose/g | 15% | 0.38 % dose/g | 0.91 % dose/g | 0.14 | 91.3 |
| CCCCCCCC/C=C/CCCCCCCC(=O)OC(COC(=O)CCCCc1c(I)cc(I)c(N)c1I)COC(=O)CCCCc1c(I)cc(I)c(N)c1I | 0.09 % dose/g | 0.09 % dose/g | 98.9 | 0.54 % dose/g | 17.9 % dose/g | 0.08 % dose/g | 0.9 % dose/organ | 0.09 % dose/g | 20.7% | 0.08 % dose/g | 1.16 % dose/g | 0.14 | 91.1 |
| CCCCCCCC/C=C/CCCCCCCC(=O)OC(COC(=O)CCCCCCc1c(I)cc(I)c(N)c1I)COC(=O)CCCCCCc1c(I)cc(I)c(N)c1I | 0.18 % dose/g | 0.22 % dose/g | 91.9 | 0.31 % dose/g | 21.8 % dose/g | 0.28 % dose/g | 2.7 % dose/organ | 0.29 % dose/g | 66.3% | 0.59 % dose/g | 1.69 % dose/g | 0.21 | 56 |
| CCCCCCCC/C=C/CCCCCCCC(=O)OC(COC(=O)C(CC)Cc1c(I)cc(I)c(N)c1I)COC(=O)C(CC)Cc1c(I)cc(I)c(N)c1I (stereo not given) | 0.03 % dose/g | 0.25 % dose/g | 78.6 | 2.88 % dose/g | 24.8 % dose/g | 0.02 % dose/g | 0.3 % dose/organ | 0.03 % dose/g | 4.9% | 0.26 % dose/g | 5.08 % dose/g | 0.01 | 97.5 |

From ChEMBL document CHEMBL1128242, “Polyiodinated triglyceride analogs as potential computed tomography imaging agents for the liver” (J Med Chem, 1995)
